Results: patent US20250098679A1, “HERBICIDAL PYRIDONE DERIVATIVES” (SYNGENTA CROP PROTECTION AG, priority 2021, published 2025)

How the values were obtained:
Format in all cases: in vivo
Conditions in all cases: evaluated after 13 days
Zea mays (ZEAMX) [1] = assay: Post-emergence Test, Zea mays (ZEAMX); set-up: key to percentage damage caused to the plant, ZEAMX (five-point scale): 5=81-100%, 4=61-80%, 3=41-60%, 2=21-40%, 1=0-20% damage
Procedure, shortened: (§1)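 Scores are percentage plant damage on a 1–5 scale (1=0-20%, 2=21-40%, 3=41-60%, 4=61-80%, 5=81-100%), read 13 days after treatment. Pots received a spray at 1000 g/ha unless otherwise stated, formulated in acetone/water (50:50) containing 0.5% Tween 20.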

[2] = system: Ipomoea hederacea (IPOHE); assay: Pre-emergence Test, Ipomoea hederacea (IPOHE)
[3] = system: Ipomoea hederacea (IPOHE); assay: Post-emergence Test, Ipomoea hederacea (IPOHE); set-up: key to percentage damage caused to the plant, IPOHE (five-point scale): 5=81-100%, 4=61-80%, 3=41-60%, 2=21-40%, 1=0-20% damage
Procedure, shortened: as §1

Setaria faberi (SETFA) [4] = assay: Pre-emergence Test, Setaria faberi (SETFA)
[5] = system: Amaranthus palmeri (AMAPA); assay: Post-emergence Test, Amaranthus palmeri (AMAPA); set-up: key: 5=81-100%, 4=61-80%, 3=41-60%, 2=21-40%, 1=0-20% damage
Procedure, shortened: as §1

Setaria faberi (SETFA) [6] = assay: Post-emergence Test, Setaria faberi (SETFA); set-up: key to percentage damage caused to the plant, SETFA (five-point scale): 5=81-100%, 4=61-80%, 3=41-60%, 2=21-40%, 1=0-20% damage
Procedure, shortened: as §1

[7] = system: Amaranthus retoflexus (AMARE); assay: Post-emergence Test, Amaranthus retoflexus (AMARE); set-up: key to percentage damage caused to the plant, AMARE (five-point scale): 5=81-100%, 4=61-80%, 3=41-60%, 2=21-40%, 1=0-20% damage
Procedure, shortened: as §1

[8] = system: Echinochloa crus-galli (ECHCG); assay: Post-emergence Test, Echinochloa crus-galli (ECHCG); set-up: key to percentage damage caused to the plant, ECHCG (five-point scale): 5=81-100%, 4=61-80%, 3=41-60%, 2=21-40%, 1=0-20% damage
Procedure, shortened: as §1

[9] = system: Echinochloa crus-galli (ECHCG); assay: Pre-emergence Test, Echinochloa crus-galli (ECHCG)
Zea mays (ZEAMX) [10] = assay: Pre-emergence Test, Zea mays (ZEAMX)
[11] = system: Amaranthus retoflexus (AMARE); assay: Pre-emergence Test, Amaranthus retoflexus (AMARE)
[12] = system: Amaranthus palmeri (AMAPA); assay: Pre-emergence Test, Amaranthus palmeri (AMAPA)

For `CCOC(=O)c1c(-c2ccc(Cl)c(Cl)c2)n(CC)c(Cn2ccc(C(F)(F)F)n2)cc1=O` [Compound 1, ethyl 2-(3,4-dichlorophenyl)-1-ethyl-4-oxo-6-[[3-(trifluoromethyl)pyrazol-1-yl]methyl]pyridine-3-carboxylate], the “percentage damage caused to the plant, ZEAMX (five-point scale)” value (Zea mays (ZEAMX) [1]; 250 g/Ha) was 1 (1=0-20%), the “percentage damage caused to the plant, ZEAMX (five-point scale)” value (Zea mays (ZEAMX) [1]; 1000 g/ha) was 3 (3=41-60%) and the “Pre-emergence Test IPOHE, percentage damage caused to the plant (five-point scale)” value ([2]; 250 g/Ha (*)) was 0. For the same compound, the “Pre-emergence Test IPOHE, percentage damage caused to the plant (five-point scale)” value ([2]; 1000 g/ha) was 0, the “percentage damage caused to the plant, IPOHE (five-point scale)” value ([3]; 250 g/Ha) was 2 (2=21-40%) and the “percentage damage caused to the plant, IPOHE (five-point scale)” value ([3]; 1000 g/ha) was 1 (1=0-20%). The “Pre-emergence Test SETFA, percentage damage caused to the plant (five-point scale)” value (Setaria faberi (SETFA) [4]; 250 g/Ha (*)) was 4 (4=61-80%), the “Pre-emergence Test SETFA, percentage damage caused to the plant (five-point scale)” value (Setaria faberi (SETFA) [4]; 1000 g/ha) was 4 (4=61-80%) and the “percentage damage caused to the plant, AMAPA (five-point scale)” value ([5]; 250 g/Ha) was 0. The “percentage damage caused to the plant, AMAPA (five-point scale)” value ([5]; 1000 g/ha) was 1 (1=0-20%), the “percentage damage caused to the plant, SETFA (five-point scale)” value (Setaria faberi (SETFA) [6]; 250 g/Ha) was 3 (3=41-60%) and the “percentage damage caused to the plant, SETFA (five-point scale)” value (Setaria faberi (SETFA) [6]; 1000 g/ha) was 4 (4=61-80%). For the same compound, the “percentage damage caused to the plant, AMARE (five-point scale)” value ([7]; 250 g/Ha) was 0, the “percentage damage caused to the plant, AMARE (five-point scale)” value ([7]; 1000 g/ha) was 1 (1=0-20%) and the “percentage damage caused to the plant, ECHCG (five-point scale)” value ([8]; 250 g/Ha) was 3 (3=41-60%). For the same compound, the “percentage damage caused to the plant, ECHCG (five-point scale)” value ([8]; 1000 g/ha) was 4 (4=61-80%), the “Pre-emergence Test ECHCG, percentage damage caused to the plant (five-point scale)” value ([9]; 250 g/Ha (*)) was 2 (2=21-40%) and the “Pre-emergence Test ECHCG, percentage damage caused to the plant (five-point scale)” value ([9]; 1000 g/ha) was 3 (3=41-60%). For the same compound, the “Pre-emergence Test ZEAMX, percentage damage caused to the plant (five-point scale)” value (Zea mays (ZEAMX) [10]; 250 g/Ha (*)) was 0, the “Pre-emergence Test ZEAMX, percentage damage caused to the plant (five-point scale)” value (Zea mays (ZEAMX) [10]; 1000 g/ha) was 0 and the “Pre-emergence Test AMARE, percentage damage caused to the plant (five-point scale)” value ([11]; 250 g/Ha (*)) was 0. For the same compound, the “Pre-emergence Test AMARE, percentage damage caused to the plant (five-point scale)” value ([11]; 1000 g/ha) was 0, the “Pre-emergence Test AMAPA, percentage damage caused to the plant (five-point scale)” value ([12]; 250 g/Ha (*)) was 0 and the “Pre-emergence Test AMAPA, percentage damage caused to the plant (five-point scale)” value ([12]; 1000 g/ha) was 0.

For `CCn1c(Cn2ccc(C(F)(F)F)n2)cc(=O)c(C(=O)O)c1-c1ccc(Cl)c(Cl)c1` [Compound 2, 2-(3,4-dichlorophenyl)-1-ethyl-4-oxo-6-[[3-(trifluoromethyl)pyrazol-1-yl]methyl]pyridine-3-carboxylic acid], the “percentage damage caused to the plant, ZEAMX (five-point scale)” value (Zea mays (ZEAMX) [1]; 250 g/Ha) was 4 (4=61-80%), the “percentage damage caused to the plant, ZEAMX (five-point scale)” value (Zea mays (ZEAMX) [1]; 1000 g/ha) was 4 (4=61-80%) and the “Pre-emergence Test IPOHE, percentage damage caused to the plant (five-point scale)” value ([2]; 250 g/Ha (*)) was 4 (4=61-80%). The “Pre-emergence Test IPOHE, percentage damage caused to the plant (five-point scale)” value ([2]; 1000 g/ha) was 3 (3=41-60%), the “percentage damage caused to the plant, IPOHE (five-point scale)” value ([3]; 250 g/Ha) was 3 (3=41-60%) and the “percentage damage caused to the plant, IPOHE (five-point scale)” value ([3]; 1000 g/ha) was 4 (4=61-80%). The “Pre-emergence Test SETFA, percentage damage caused to the plant (five-point scale)” value (Setaria faberi (SETFA) [4]; 250 g/Ha (*)) was 5 (5=81-100%), the “Pre-emergence Test SETFA, percentage damage caused to the plant (five-point scale)” value (Setaria faberi (SETFA) [4]; 1000 g/ha) was 5 (5=81-100%) and the “percentage damage caused to the plant, AMAPA (five-point scale)” value ([5]; 250 g/Ha) was 3 (3=41-60%). The “percentage damage caused to the plant, AMAPA (five-point scale)” value ([5]; 1000 g/ha) was 4 (4=61-80%), the “percentage damage caused to the plant, SETFA (five-point scale)” value (Setaria faberi (SETFA) [6]; 250 g/Ha) was 4 (4=61-80%) and the “percentage damage caused to the plant, SETFA (five-point scale)” value (Setaria faberi (SETFA) [6]; 1000 g/ha) was 5 (5=81-100%). The “percentage damage caused to the plant, AMARE (five-point scale)” value ([7]; 250 g/Ha) was 3 (3=41-60%), the “percentage damage caused to the plant, AMARE (five-point scale)” value ([7]; 1000 g/ha) was 4 (4=61-80%) and the “percentage damage caused to the plant, ECHCG (five-point scale)” value ([8]; 250 g/Ha) was 4 (4=61-80%). For the same compound, the “percentage damage caused to the plant, ECHCG (five-point scale)” value ([8]; 1000 g/ha) was 4 (4=61-80%), the “Pre-emergence Test ECHCG, percentage damage caused to the plant (five-point scale)” value ([9]; 250 g/Ha (*)) was 5 (5=81-100%) and the “Pre-emergence Test ECHCG, percentage damage caused to the plant (five-point scale)” value ([9]; 1000 g/ha) was 5 (5=81-100%). The “Pre-emergence Test ZEAMX, percentage damage caused to the plant (five-point scale)” value (Zea mays (ZEAMX) [10]; 250 g/Ha (*)) was 4 (4=61-80%), the “Pre-emergence Test ZEAMX, percentage damage caused to the plant (five-point scale)” value (Zea mays (ZEAMX) [10]; 1000 g/ha) was 4 (4=61-80%) and the “Pre-emergence Test AMARE, percentage damage caused to the plant (five-point scale)” value ([11]; 250 g/Ha (*)) was 1 (1=0-20%). The “Pre-emergence Test AMARE, percentage damage caused to the plant (five-point scale)” value ([11]; 1000 g/ha) was 3 (3=41-60%), the “Pre-emergence Test AMAPA, percentage damage caused to the plant (five-point scale)” value ([12]; 250 g/Ha (*)) was 0 and the “Pre-emergence Test AMAPA, percentage damage caused to the plant (five-point scale)” value ([12]; 1000 g/ha) was 3 (3=41-60%).

With `CCOC(=O)c1c(-c2ccc(Cl)c(Cl)c2)n(CC)c(Cn2ccc(Cl)n2)cc1=O` [Compound 3, ethyl 6-[(3-chloropyrazol-1-yl)methyl]-2-(3,4-dichlorophenyl)-1-ethyl-4-oxo-pyridine-3-carboxylate] the “percentage damage caused to the plant, ZEAMX (five-point scale)” value (Zea mays (ZEAMX) [1]; 250 g/Ha) was 0, the “percentage damage caused to the plant, ZEAMX (five-point scale)” value (Zea mays (ZEAMX) [1]; 1000 g/ha) was 2 (2=21-40%) and the “Pre-emergence Test IPOHE, percentage damage caused to the plant (five-point scale)” value ([2]; 250 g/Ha (*)) was 0. The “Pre-emergence Test IPOHE, percentage damage caused to the plant (five-point scale)” value ([2]; 1000 g/ha) was 0, the “percentage damage caused to the plant, IPOHE (five-point scale)” value ([3]; 250 g/Ha) was 4 (4=61-80%) and the “percentage damage caused to the plant, IPOHE (five-point scale)” value ([3]; 1000 g/ha) was 2 (2=21-40%). For the same compound, the “Pre-emergence Test SETFA, percentage damage caused to the plant (five-point scale)” value (Setaria faberi (SETFA) [4]; 250 g/Ha (*)) was 1 (1=0-20%), the “Pre-emergence Test SETFA, percentage damage caused to the plant (five-point scale)” value (Setaria faberi (SETFA) [4]; 1000 g/ha) was 5 (5=81-100%) and the “percentage damage caused to the plant, AMAPA (five-point scale)” value ([5]; 250 g/Ha) was 1 (1=0-20%). The “percentage damage caused to the plant, AMAPA (five-point scale)” value ([5]; 1000 g/ha) was 2 (2=21-40%), the “percentage damage caused to the plant, SETFA (five-point scale)” value (Setaria faberi (SETFA) [6]; 250 g/Ha) was 2 (2=21-40%) and the “percentage damage caused to the plant, SETFA (five-point scale)” value (Setaria faberi (SETFA) [6]; 1000 g/ha) was 3 (3=41-60%). For the same compound, the “percentage damage caused to the plant, AMARE (five-point scale)” value ([7]; 250 g/Ha) was 1 (1=0-20%), the “percentage damage caused to the plant, AMARE (five-point scale)” value ([7]; 1000 g/ha) was 1 (1=0-20%) and the “percentage damage caused to the plant, ECHCG (five-point scale)” value ([8]; 250 g/Ha) was 1 (1=0-20%). For the same compound, the “percentage damage caused to the plant, ECHCG (five-point scale)” value ([8]; 1000 g/ha) was 3 (3=41-60%), the “Pre-emergence Test ECHCG, percentage damage caused to the plant (five-point scale)” value ([9]; 250 g/Ha (*)) was 1 (1=0-20%) and the “Pre-emergence Test ECHCG, percentage damage caused to the plant (five-point scale)” value ([9]; 1000 g/ha) was 4 (4=61-80%). The “Pre-emergence Test ZEAMX, percentage damage caused to the plant (five-point scale)” value (Zea mays (ZEAMX) [10]; 250 g/Ha (*)) was 0, the “Pre-emergence Test ZEAMX, percentage damage caused to the plant (five-point scale)” value (Zea mays (ZEAMX) [10]; 1000 g/ha) was 0 and the “Pre-emergence Test AMARE, percentage damage caused to the plant (five-point scale)” value ([11]; 250 g/Ha (*)) was 0. For the same compound, the “Pre-emergence Test AMARE, percentage damage caused to the plant (five-point scale)” value ([11]; 1000 g/ha) was 1 (1=0-20%), the “Pre-emergence Test AMAPA, percentage damage caused to the plant (five-point scale)” value ([12]; 250 g/Ha (*)) was 0 and the “Pre-emergence Test AMAPA, percentage damage caused to the plant (five-point scale)” value ([12]; 1000 g/ha) was 0.

For `CCOC(=O)c1c(C)cnn1Cc1cc(=O)c(C(=O)O)c(-c2ccc(Cl)c(Cl)c2)n1CC` [Compound 122, 2-(3,4-dichlorophenyl)-6-[(5-ethoxycarbonyl-4-methyl-pyrazol-1-yl)methyl]-1-ethyl-4-oxo-pyridine-3-carboxylic acid], the “Pre-emergence Test IPOHE, percentage damage caused to the plant (five-point scale)” value ([2]; 250 g/Ha (*)) was 0, the “Pre-emergence Test SETFA, percentage damage caused to the plant (five-point scale)” value (Setaria faberi (SETFA) [4]; 250 g/Ha (*)) was 1 (1=0-20%) and the “Pre-emergence Test ECHCG, percentage damage caused to the plant (five-point scale)” value ([9]; 250 g/Ha (*)) was 0. For the same compound, the “Pre-emergence Test ZEAMX, percentage damage caused to the plant (five-point scale)” value (Zea mays (ZEAMX) [10]; 250 g/Ha (*)) was 0, the “Pre-emergence Test AMARE, percentage damage caused to the plant (five-point scale)” value ([11]; 250 g/Ha (*)) was 0 and the “Pre-emergence Test AMAPA, percentage damage caused to the plant (five-point scale)” value ([12]; 250 g/Ha (*)) was 1 (1=0-20%).
